In ChEMBL document CHEMBL1201862, “PubChem BioAssay data set” (2004):
Active and inactive are the calls of the source.

Key:
cells = assay type: functional
Cysteine protease ATG4B = biological target: T1, Cysteine protease ATG4B (Homo sapiens, UniProt Q9Y4P1); assay type: functional;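 note: Fluorescence-based dose-response confirmation assay measuring inhibition of ATG4B activity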
T1 sequence (Q9Y4P1 whole entry): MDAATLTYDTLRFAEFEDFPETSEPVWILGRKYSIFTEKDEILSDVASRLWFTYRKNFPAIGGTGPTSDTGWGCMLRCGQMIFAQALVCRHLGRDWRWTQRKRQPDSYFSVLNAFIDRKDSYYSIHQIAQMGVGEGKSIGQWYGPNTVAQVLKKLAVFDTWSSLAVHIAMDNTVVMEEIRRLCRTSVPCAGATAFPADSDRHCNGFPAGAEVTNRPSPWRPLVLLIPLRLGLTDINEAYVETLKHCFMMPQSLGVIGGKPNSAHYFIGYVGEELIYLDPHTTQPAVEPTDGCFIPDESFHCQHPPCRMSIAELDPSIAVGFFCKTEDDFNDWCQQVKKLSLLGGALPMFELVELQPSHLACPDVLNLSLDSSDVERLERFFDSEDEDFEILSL

Phospholipase A2 = Phospholipase A2 (Homo sapiens, UniProt P04054); assay type: functional;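 note: confirmatory dose-response counterscreen on phospholipase A2, testing hits that came from an ultra-high-throughput screen for ATG4B inhibitors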
Chain of Phospholipase A2 (P04054 whole entry): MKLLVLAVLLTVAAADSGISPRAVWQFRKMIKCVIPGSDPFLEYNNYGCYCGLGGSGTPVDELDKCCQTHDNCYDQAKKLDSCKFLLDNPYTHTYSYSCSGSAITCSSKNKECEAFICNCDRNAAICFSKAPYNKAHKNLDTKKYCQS

[1] = NIH-3T3 fibroblast cytotoxicity, dose response, cytotoxicity control, cell-based, fluorescence, Alamar Blue, secondary assay (AID 2327); assay type: functional;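 note: NIH-3T3 mouse fibroblasts cultured with fluconazole at 8 µg/mL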
[2] = fluconazole-exposed Candida albicans growth modulators – fluorescence, retest, confirmation (AID 2467); assay type: functional, cell-based
[3] = biological target: G-protein coupled receptor 55 (Homo sapiens, UniProt Q9Y2T6); experiment: inhibition of LPI-stimulated GPR55 beta-arrestin translocation – imaging, U2OS, beta-arrestin-GFP, LPI agonist, primary screen (AID 2013); assay type: functional;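 note: antagonist potency measured as reduced agonist-driven arrestin aggregation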
Chain of G-protein coupled receptor 55 (Q9Y2T6 whole entry): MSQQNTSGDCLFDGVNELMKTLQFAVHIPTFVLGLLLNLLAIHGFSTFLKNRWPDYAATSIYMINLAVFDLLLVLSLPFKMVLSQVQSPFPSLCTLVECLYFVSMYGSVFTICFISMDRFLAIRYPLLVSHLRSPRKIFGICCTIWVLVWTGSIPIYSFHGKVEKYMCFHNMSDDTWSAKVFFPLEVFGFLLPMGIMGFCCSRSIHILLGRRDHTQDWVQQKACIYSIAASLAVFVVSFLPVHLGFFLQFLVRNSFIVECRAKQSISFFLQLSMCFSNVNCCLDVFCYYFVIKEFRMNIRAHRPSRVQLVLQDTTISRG

Fatty acid synthase [4] = biological target: T2, Fatty acid synthase (Homo sapiens, UniProt P49327); experiment: inhibition of human FAS-TE enzyme activity – biochemical, kinetic fluorescence intensity, dose response (AID 624326); assay type: functional;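 note: rate of fluorescence rise from hydrolysis of a fluorogenic O-methyl fluorescein ester substrate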
T2 sequence (P49327 whole entry): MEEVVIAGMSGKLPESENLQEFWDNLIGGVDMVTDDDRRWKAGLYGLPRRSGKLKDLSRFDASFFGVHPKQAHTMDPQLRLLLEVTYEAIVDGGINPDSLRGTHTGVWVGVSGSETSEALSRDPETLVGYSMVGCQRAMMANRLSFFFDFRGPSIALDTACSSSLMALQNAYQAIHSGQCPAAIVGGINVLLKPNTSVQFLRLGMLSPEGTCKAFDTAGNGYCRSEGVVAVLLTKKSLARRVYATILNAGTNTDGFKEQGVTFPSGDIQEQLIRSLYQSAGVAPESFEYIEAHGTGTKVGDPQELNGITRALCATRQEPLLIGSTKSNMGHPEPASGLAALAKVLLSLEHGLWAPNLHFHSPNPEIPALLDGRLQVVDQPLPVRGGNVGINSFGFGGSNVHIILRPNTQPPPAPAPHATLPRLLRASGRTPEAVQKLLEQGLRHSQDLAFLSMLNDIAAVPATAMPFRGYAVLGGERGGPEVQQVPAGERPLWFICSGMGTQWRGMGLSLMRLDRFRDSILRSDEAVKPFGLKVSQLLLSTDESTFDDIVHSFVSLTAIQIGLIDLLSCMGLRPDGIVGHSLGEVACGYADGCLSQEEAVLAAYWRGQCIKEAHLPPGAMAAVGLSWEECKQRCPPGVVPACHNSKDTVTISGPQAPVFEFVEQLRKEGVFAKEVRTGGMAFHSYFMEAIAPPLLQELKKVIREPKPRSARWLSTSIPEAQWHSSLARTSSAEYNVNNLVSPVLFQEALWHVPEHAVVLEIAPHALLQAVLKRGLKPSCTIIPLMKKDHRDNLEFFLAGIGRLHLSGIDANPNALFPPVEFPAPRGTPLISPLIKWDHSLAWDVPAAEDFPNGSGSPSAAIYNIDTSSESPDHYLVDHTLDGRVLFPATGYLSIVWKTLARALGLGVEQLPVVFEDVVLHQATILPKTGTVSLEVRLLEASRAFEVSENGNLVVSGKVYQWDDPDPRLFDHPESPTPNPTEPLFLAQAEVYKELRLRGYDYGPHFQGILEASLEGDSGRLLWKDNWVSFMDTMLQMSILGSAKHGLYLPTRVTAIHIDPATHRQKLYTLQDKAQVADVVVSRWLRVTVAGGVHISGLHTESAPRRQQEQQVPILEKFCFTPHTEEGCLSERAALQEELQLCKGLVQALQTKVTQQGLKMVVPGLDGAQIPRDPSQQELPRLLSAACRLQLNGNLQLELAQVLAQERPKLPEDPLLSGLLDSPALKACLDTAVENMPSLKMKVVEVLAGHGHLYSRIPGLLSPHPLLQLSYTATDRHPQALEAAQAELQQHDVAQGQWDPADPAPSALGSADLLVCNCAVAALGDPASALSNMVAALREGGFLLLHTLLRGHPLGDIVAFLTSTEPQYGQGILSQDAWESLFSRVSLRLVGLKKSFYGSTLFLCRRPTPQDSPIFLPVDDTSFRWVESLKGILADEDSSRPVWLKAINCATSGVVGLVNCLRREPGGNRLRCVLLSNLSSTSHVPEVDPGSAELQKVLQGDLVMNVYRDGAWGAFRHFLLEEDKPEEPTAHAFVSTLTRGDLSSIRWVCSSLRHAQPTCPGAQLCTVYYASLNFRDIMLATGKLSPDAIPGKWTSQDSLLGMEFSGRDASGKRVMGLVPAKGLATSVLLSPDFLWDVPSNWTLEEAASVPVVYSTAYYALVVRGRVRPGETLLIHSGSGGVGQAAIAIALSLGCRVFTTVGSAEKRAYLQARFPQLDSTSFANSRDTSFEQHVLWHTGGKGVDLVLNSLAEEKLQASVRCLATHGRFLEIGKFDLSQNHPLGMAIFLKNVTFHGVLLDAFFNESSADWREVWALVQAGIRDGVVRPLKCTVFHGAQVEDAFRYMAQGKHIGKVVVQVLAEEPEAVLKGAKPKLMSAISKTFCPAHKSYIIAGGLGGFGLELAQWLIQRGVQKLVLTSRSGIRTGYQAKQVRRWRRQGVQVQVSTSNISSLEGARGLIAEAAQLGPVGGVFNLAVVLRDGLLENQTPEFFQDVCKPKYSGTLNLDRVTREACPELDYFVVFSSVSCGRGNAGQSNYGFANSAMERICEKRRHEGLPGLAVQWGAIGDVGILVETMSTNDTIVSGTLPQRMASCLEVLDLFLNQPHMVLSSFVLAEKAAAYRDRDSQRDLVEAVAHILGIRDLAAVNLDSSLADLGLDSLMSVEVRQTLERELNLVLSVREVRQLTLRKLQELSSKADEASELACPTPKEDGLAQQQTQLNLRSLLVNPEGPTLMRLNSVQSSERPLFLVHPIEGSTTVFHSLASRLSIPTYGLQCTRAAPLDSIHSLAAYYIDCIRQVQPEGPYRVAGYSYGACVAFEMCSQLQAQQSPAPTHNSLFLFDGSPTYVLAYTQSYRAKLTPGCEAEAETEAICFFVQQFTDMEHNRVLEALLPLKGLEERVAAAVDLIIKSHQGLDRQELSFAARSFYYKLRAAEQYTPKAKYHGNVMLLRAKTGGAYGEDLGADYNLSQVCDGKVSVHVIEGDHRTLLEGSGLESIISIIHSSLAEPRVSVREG

Fatty acid synthase [5] = biological target: T2, Fatty acid synthase; experiment: inhibition of human FAS-TE enzyme activity – biochemical, endpoint fluorescence intensity, uHTS hits, dose response (AID 624327); assay type: functional;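 note: fluorescence from hydrolysis of an O-methyl fluorescein acyl ester substrate by the enzyme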
Cytochrome P450 2C9 = Cytochrome P450 2C9 (Homo sapiens, UniProt P11712)
Chain of Cytochrome P450 2C9 (P11712 whole entry): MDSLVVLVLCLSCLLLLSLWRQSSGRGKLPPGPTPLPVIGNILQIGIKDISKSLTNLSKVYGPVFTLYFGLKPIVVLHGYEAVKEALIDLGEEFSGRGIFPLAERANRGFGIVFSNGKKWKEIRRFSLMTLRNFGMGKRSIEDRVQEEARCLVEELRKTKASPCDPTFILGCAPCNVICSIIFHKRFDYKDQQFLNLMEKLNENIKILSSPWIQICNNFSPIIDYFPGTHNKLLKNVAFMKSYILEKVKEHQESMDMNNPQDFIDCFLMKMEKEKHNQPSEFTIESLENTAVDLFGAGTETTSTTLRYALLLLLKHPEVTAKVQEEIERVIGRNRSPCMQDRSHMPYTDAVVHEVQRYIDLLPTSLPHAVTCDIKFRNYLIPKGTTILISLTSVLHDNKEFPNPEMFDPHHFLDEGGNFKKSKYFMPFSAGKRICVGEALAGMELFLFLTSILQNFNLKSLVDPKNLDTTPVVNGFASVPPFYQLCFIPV

Cytochrome P450 2C19 = Cytochrome P450 2C19 (Homo sapiens, UniProt P33261); experiment: Cytochrome panel assay with activity outcomes. Panel member name: p450-cyp2c19 Compounds with AC50 equal or less than 10 uM are considered active; assay type: functional
Chain of Cytochrome P450 2C19 (P33261 whole entry, the tested form may be a part): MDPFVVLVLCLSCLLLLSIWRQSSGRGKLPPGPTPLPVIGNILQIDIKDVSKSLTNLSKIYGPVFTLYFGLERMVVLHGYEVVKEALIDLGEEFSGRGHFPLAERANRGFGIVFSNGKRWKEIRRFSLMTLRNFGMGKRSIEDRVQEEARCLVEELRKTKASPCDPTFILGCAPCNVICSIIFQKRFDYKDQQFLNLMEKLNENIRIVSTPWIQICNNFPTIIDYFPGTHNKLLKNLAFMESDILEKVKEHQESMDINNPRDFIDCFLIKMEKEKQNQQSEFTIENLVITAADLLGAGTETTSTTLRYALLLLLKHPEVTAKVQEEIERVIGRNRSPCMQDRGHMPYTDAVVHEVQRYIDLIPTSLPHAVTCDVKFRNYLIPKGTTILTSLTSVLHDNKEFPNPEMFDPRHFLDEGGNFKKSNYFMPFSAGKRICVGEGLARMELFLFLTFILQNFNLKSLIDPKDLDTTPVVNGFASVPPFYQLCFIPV

[6] = biological target: T3, Carboxy-terminal domain RNA polymerase II polypeptide A small phosphatase 1 (Homo sapiens, UniProt Q9GZU7); experiment: CTDSP1 inhibitors, concentration-response, biochemical, absorbance readout, ultra-high-throughput screen actives (AID 540297); assay type: functional
T3 sequence (Q9GZU7 whole entry): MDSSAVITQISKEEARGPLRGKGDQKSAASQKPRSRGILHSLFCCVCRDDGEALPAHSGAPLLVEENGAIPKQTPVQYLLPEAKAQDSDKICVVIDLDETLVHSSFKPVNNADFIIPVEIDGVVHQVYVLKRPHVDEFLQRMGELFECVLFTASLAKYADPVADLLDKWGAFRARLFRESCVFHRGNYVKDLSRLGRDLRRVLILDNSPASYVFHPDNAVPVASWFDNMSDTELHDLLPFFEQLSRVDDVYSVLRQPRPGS

[7] = biological target: T4, Sentrin-specific protease 8 (Homo sapiens, UniProt Q96LD8); assay type: functional
T4 sequence (Q96LD8 whole entry): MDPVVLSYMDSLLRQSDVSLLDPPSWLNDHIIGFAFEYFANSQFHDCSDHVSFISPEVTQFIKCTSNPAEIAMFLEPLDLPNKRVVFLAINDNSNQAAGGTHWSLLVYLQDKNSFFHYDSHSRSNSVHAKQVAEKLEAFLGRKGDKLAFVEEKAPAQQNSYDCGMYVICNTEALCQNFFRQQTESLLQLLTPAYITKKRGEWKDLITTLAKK

[8] = biological target: T4, Sentrin-specific protease 8; assay type: functional; remark: listed apart in the source
[9] = biological target: T5, Ubiquitin-conjugating enzyme E2 N (Homo sapiens, UniProt P61088); assay type: functional;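 note: Dose-response confirmation in a TR-FRET assay detecting UBC13-driven polyubiquitin chain formation, inhibition measured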
T5 sequence (P61088 whole entry): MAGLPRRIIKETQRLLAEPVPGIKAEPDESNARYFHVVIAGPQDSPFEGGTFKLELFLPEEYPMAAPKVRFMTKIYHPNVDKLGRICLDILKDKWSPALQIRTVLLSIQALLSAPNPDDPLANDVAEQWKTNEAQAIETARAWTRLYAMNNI

[10] = HEK-293T viability loss after treatment – luminescence, T-cell screen hits, cytotoxicity control for TCR NF-kB inhibitor project, dose response (AID 489026); assay type: functional, cell-based;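 note: cells exposed to compound about 14 hours before the viability readout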
Cytochrome P450 1A2 = biological target: T6, Cytochrome P450 1A2 (Homo sapiens, UniProt P05177);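 note: PubChem cytochrome P450 panel assay, CYP1A2 panel member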
T6 sequence (P05177 whole entry): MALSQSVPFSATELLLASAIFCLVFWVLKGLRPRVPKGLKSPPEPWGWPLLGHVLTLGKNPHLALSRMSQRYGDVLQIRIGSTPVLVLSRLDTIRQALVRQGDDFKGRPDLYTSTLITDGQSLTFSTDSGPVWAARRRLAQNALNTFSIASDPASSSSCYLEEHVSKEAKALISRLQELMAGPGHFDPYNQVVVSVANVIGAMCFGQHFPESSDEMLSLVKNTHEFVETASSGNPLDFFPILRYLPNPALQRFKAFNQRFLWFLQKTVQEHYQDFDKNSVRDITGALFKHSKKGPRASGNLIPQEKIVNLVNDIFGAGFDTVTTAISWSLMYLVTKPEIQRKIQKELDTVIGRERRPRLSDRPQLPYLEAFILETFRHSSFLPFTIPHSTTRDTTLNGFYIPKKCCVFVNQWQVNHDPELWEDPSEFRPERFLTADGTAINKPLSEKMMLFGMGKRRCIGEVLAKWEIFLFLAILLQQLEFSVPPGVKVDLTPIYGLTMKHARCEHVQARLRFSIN

Cytochrome P450 2D6 = Cytochrome P450 2D6 (Homo sapiens, UniProt P10635);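 note: CYP2D6 member of a cytochrome P450 panel assay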
Chain of Cytochrome P450 2D6 (P10635 whole entry): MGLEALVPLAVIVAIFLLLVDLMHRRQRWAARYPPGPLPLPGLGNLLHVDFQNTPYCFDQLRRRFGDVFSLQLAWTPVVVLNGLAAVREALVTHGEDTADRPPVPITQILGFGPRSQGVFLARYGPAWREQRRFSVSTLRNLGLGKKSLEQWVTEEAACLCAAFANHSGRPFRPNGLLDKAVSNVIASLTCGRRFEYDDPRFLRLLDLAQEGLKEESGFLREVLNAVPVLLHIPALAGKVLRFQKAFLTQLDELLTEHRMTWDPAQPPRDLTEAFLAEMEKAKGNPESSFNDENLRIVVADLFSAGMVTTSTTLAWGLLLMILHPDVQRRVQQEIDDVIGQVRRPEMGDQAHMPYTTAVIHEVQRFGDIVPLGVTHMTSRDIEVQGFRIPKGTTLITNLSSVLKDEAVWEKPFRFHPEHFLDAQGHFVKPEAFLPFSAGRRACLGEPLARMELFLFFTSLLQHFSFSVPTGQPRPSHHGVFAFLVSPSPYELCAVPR

For `COc1ccc(C(C)=O)cc1COC(=O)c1ccc2ccccc2n1`, the IC50 (cells) was 10.4 µM (active).

For `COc1cc(OC)cc(-c2nc3ccccc3c(=O)n2OC(=O)c2ccc(C)c(C)c2)c1`, the IC50 (Cysteine protease ATG4B) was 4.38 µM (active) and the IC50 (Phospholipase A2) was 5.9 µM (active).

For `CCn1c(=O)c(C(=O)Nc2ncccc2C)c(O)c2ccccc21`, the EC50 [1] was > 150 µM (inconclusive), the EC50 [2] was 0.119 µM (active) and the IC50 (cells) was 45.2 µM (active).

With `CCOC(=O)c1c(N)sc(C(O)(C(F)(F)F)C(F)(F)F)c1-c1ccc(F)cc1` the IC50 [3] was 4.92 µM (active).

For `O=C(c1cccc(S(=O)(=O)N2CCCC2)c1)c1cccc(S(=O)(=O)N2CCCC2)c1`, the IC50 (Fatty acid synthase [4]) was 6.54 µM (active) and the IC50 (Fatty acid synthase [5]) was 12.1 µM (active).

With `CN(C)CCNCCN` the AC50 (Cytochrome P450 2C9) was “inconclusive” and the AC50 (Cytochrome P450 2C19) was “inconclusive”.

For `CCOc1ccccc1NC(=O)Cn1cnc2c(nnn2-c2cccc(OC)c2)c1=O`, the IC50 [6] was 10.1 µM (active).

In the case of `CN1C(=O)C(N=Nc2ccccc2C(=O)O)N(C)C1=S` (stereo unspecified), the IC50 (Cysteine protease ATG4B) is reported as 16.1 µM (active) and the IC50 (Phospholipase A2) is reported as 10.3 µM (active).

For `O=C(COc1ccccc1[N+](=O)[O-])Nc1cccc(S(=O)(=O)NC2=NCCCCC2)c1`, the IC50 [6] was 9 µM (active).

With `Cc1ccc(NCCC(=O)c2cccs2)cc1Cl` the IC50 (cells) was 28.8 µM (active).

In the case of `COc1ccc(NC(=O)NNc2cc(N3CCOCC3)nc(N3CCOCC3)n2)cc1`, the IC50 [7] is reported as 9.34 µM (active) and the IC50 [8] is reported as 7.36 µM (active).

With `COC(=O)C1=C(C)N(Cc2ccccc2)C(NCc2ccc(OC)cc2)=N[C@H]1c1cccc(F)c1` the IC50 [9] was > 20 µM (inactive) and the IC50 [3] was 1.46 µM (active).

In the case of `COc1cc(=O)n(C)c2c(O)cccc12`, the IC50 [7] is reported as 11.5 µM (active) and the IC50 [8] is reported as > 100 µM (inactive).

With `Cc1ccc2[nH]c(CCc3nc4cc(C)ccc4[nH]3)nc2c1` the IC50 (cells) was 35.3 µM (active).

With `COc1cccc(C2CC(=O)Nc3cc4c(cc32)CCC4)c1` (stereo unspecified) the IC50 [10] was > 80 µM (inactive).

With `Cc1cccc(-n2c(-c3cccs3)nc3ccccc3c2=O)c1` the IC50 (Cysteine protease ATG4B) was 10 µM (active) and the IC50 (Phospholipase A2) was 7.49 µM (active).

For `O=S(=O)(Nc1ccc2c(c1)OCCO2)c1cccc2cccnc12`, the AC50 (Cytochrome P450 1A2) was 5.01 µM (inconclusive), the AC50 (Cytochrome P450 2C9) was “inconclusive” and the AC50 (Cytochrome P450 2D6) was 39.8 µM (inconclusive).

In the case of `CC(C)(C)OC(=O)N1Cc2ccccc2C[C@H]1C(=O)O`, the IC50 [7] is reported as 12.8 µM (active) and the IC50 [8] is reported as > 100 µM (inactive).
